The results in this text go back to PMC8645336, “Benchmarking a highly selective USP30 inhibitor for enhancement of mitophagy and pexophagy” (Life Science Alliance, 2021).

Holding throughout (test): biochemical
What all share (design): Ubiquigent DUB profiler selectivity panel, remaining enzyme activity as % of control
What all share (details): read-out: % of control remaining

One experiment has as its target T1, AMSH-LP (Homo sapiens, UniProt Q96FJ0).
T1 construct: gene STAMBPL1
T1 sequence (Q96FJ0 1-436): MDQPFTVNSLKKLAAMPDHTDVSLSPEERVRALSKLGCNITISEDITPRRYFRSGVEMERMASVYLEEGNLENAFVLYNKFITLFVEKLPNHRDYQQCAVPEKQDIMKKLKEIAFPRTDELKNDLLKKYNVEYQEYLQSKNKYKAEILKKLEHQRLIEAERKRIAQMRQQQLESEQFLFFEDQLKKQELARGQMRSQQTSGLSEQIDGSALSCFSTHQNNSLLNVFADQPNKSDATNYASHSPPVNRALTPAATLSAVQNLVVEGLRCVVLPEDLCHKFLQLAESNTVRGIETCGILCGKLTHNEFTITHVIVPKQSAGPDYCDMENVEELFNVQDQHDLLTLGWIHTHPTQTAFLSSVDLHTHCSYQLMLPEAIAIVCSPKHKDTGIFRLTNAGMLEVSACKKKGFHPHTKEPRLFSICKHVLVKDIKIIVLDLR
The method, then:
(§1) Previous work has reported IC50 values for a series of benzosulphonamide inhibitors, of which all those <1 μM were screened for selectivity, in comparison to three other USP family members ([20], [21]). We have selected one of these compounds (CMPD-39, Fig 1A) for a more rigorous test of selectivity provided by the Ubiquigent DUB profiler screening platform comprising >40 DUBs. […] To test engagement of the inhibitor with USP30 applied to intact cells, we assayed competition with Ub-PA (Ub-propargylamide). Ub-PA covalently binds to the USP30 active site leading to a characteristic upshift on a SDS–PAGE gel ([22]). If a drug blocks access to the catalytic site, then the probe modification is blocked and the apparent molecular weight of USP30 shifts down accordingly. […] A robust proxy read-out for target engagement is the enhancement of TOMM20 ubiquitylation after mitochondrial depolarization ([6], [16]). This second assay indicates a maximal effect with 200 nM CMPD-39 applied to RPE1-YFP-PRKN cells (Fig 1D).  Figure 1. CMPD-39 is a selective USP30 inhibitor. (A) Chemical structure of CMPD-39. (B) DUB specificity screen (DUB profiler, Ubiquigent) with 1-100 μM CMPD-39. […] Samples were incubated with CMPD-39 for 2 h at the indicated concentrations, then incubated with HA-Ub-PA probe for 10 min at 37°C and immunoblotted as shown. Red arrow indicates unbound USP30; blue arrow represents probe bound USP30. (D) Inhibition of USP30 enhances the ubiquitylation of TOMM20 in YFP-PRKN over-expressing hTERT-RPE1 cells in a concentration dependent manner in response to mitophagy induction. Cells were treated for 1 h with DMSO or antimycin A and oligomycin A (AO; 1 μM each) in the absence or presence of CMPD-39 at the indicated concentrations, lysed, and analyzed by Western blotting. Black arrow indicates unmodified TOMM20, ubiquitylated species are indicated by red (mono-ubiquitylated) or blue arrow heads. […] Source data are available for this figure.

Another experiment deals with T2, USP27x (Homo sapiens, UniProt A6NNY8).
T2 sequence (A6NNY8 1-438): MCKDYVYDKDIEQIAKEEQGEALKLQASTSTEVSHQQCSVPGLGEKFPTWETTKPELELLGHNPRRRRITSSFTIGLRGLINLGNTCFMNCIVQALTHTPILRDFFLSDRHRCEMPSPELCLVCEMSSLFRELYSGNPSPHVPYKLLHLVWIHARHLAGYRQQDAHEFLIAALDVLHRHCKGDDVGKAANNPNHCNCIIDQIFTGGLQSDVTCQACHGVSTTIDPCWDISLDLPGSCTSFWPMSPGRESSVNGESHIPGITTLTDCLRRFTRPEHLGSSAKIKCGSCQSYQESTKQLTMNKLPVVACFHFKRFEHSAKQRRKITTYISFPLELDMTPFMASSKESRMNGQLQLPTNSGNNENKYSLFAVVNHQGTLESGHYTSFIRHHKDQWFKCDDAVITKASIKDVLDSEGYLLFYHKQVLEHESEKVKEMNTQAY
The method, then: as §1

The target of the next experiment is T3, OTUD6A (Homo sapiens, UniProt Q7L8S5).
T3 sequence (Q7L8S5 1-288): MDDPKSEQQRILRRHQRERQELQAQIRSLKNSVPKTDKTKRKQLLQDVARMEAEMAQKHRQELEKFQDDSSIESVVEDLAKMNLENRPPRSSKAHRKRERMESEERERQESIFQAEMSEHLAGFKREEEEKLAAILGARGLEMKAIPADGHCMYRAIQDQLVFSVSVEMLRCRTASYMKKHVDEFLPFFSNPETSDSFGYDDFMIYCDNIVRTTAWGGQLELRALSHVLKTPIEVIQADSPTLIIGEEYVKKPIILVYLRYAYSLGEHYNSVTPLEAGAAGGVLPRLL
How it is done:
as §1

`CC(C)(C)NS(=O)(=O)c1ccc(NC(=O)[C@H](Cc2ccccc2)NC(=O)c2ccc(F)cc2)cc1` [compound 39, CMPD-39]: the remaining activity at 1 µM stood at 109% at AMSH-LP, 108% at USP27x and 103% at OTUD6A. Besides, the remaining activity at 10 µM on AMSH-LP turned out to be 102%; at USP27x it was 93.8%; at OTUD6A it was 99.3%. In addition, the remaining activity at 100 µM amounted to 112% on AMSH-LP, 93.4% at USP27x and 101% at OTUD6A.
